The source of these data is patent US20130266557A1, “METHODS FOR TREATMENT OF A SARCOMA USING AN EPIMETABOLIC SHIFTER (COENZYME Q10)” (priority 2009, published 2013).

The subject of one data set is cancer patients. As to conditions: eight case histories, oral CoQ10; cited from earlier work.
A further data set relates to NCI-ES-0808 cells. Nature of the data set: Cell morphology by microscopy. The data set is classed as cell-based, human. The procedure:
NCIES0808 cells were plated in T25 flasks at a density of 2×10^6 cells per flask in media or media containing 50 uM/100 uM Q10. All treatment groups were run in triplicate. Cells were harvested at 0, 3, 6, 24 or 48 hours. Pictures were taken to examine cell morphology before harvesting. To harvest cells, media was removed but saved to be able to collect floating apoptotic cells. Cells were trypsinized with 1 ml of trypsin-EDTA and the enzyme action was stopped by addition of 4 ml complete media. Trypsinized cells were added to the appropriate tube containing the media with dead cells. Cells were centrifuged at 1200 rpm for 5 minutes and media was aspirated leaving behind the cell pellet for RNA extraction. […] RNA samples were eluted from spin columns in water; absorbance was measured at 260 nm, 230 nm and 280 nm. The purity of RNA was evaluated by the 260/230 and 280/230 ratios. The concentration of RNA in all of the samples was calculated from absorbance values at […]. […] The ct values from each of the samples were normalized to three housekeeping genes and fold regulation of Q10 treated groups was compared to time matched controls from cells grown in regular media was calculated.
The morphology of NCI-ES-0808 cells was monitored following treatment with CoQ10. […]

For data set [1] the following is noted: rats, oral; cited from earlier work.
Another data set concerns NCIES0808 cells. Nature of the data set: Antibody microarray analysis of protein levels. The data set is classed as cell-based, human. The method, then: NCIES0808 cells were received from SBH in T165 flasks (×55). […] The cell morphology was examined closely under a microscope and the cells were noted to appear healthy with no visual signs of contamination or intracellular inclusions.
A 500 μM Q10 stock was made using the same protocol outlined for the PCR arrays. The media was exchanged in every flask with 50 μM and 100 μM Q10 media being placed into the appropriate flasks. The cells were incubated for 3 hr and 6 hr in the Q10 formulated media and the cells were harvested. Each flask was washed with 10 ml of ice cold PBS and trypsinized with 5 ml of trypsin-EDTA. The cells were harvested by gentle pipetting and the enzyme action was stopped by addition of 30 ml complete media. The cells were centrifuged at 1200 rpm for 5 minutes and media was aspirated from the tube leaving behind the cell pellet for protein extraction.
The proteins were extracted from the cells as per page 2; sub-category IA; of the manufacture's Product Information Sheet, Sigma®, Panarama® Antibody Microarray EPRESS Profiler725, cat#: XP725. The protein material from the whole cell lysates was conjugated with Cy3 and Cy5 dyes, GE Healthcare, product #: 25-8009-86 Cy3 and 25-8009-87 Cy5 as per the manufacturer's instructions outlined in the above mentioned product sheet sub-category IIA. […] The arrays were analyzed using a Fuji FLA-5100 UV scanner at the 532 nm for the Cy3 dye and 635 nm for the Cy5 dye. […]
The evaluation of changes in protein concentration due to the presence of Q10 was evaluated through the utilization of antibody microarray methods. […]
Once data sets were collected for all arrays, the data was scrutinized against three major parameters. […] An evaluation of the positive and negative Cy3/Cy5 data (included as controls on the chip) and a visual inspection of the spectral density for a given spot it was determined that and array data point with a spectral density less than 10 was approaching the background level and deemed statistically irrelevant and removed from the data series. […]

The subject of data set [2] is cancer cell lines (SK-MEL-28, SK-MEL-2, SCC, PaCa2, HEP-G2) and control keratinocytes and melanocytes. Nature of the data set: Sensitivity and apoptotic response of a cell line panel (Example 1). It is filed as cell-based. The settings on record: various levels of Coenzyme Q10. The procedure:
In a first set of experiments, changes to cell morphology/physiology were evaluated by examining the sensitivity and apoptotic response of cells to CoQ10. A panel of skin cell lines including a control cell lines (primary culture of keratinocytes and melanocytes) and several skin cancers cell lines (SK-MEL-28, a non-metastatic skin melanoma; SK-MEL-2, a metastatic skin melanoma; or SCC, a squamous cell carcinoma; PaCa2, a pancreatic cancer cell line; or HEP-G2, a liver cancer cell line) were treated with various levels of Coenzyme Q10.

For data set [3] the following is noted: human plasma; cited from earlier work.
A short description of data set [4]: Level and form of CoQ10 in mitochondrial enriched preparations. It is filed as cell-based. The procedure:
Experiments were carried out to confirm the entry of CoQ10 into cells and to determine the level and form of CoQ10 present in the cells. In particular, the level of Coenzyme Q10, as well as the form of CoQ10 (i.e., oxidized or reduced), present in the mitochondria was determined by analyzing mitochondrial enriched preparations from cells treated with CoQ10. […] In addition, changes in levels of proteins from mitochondria enriched samples were analyzed by using 2-D gel electrophoresis and protein identification by mass spectrometry characterization.

In the case of Coenzyme Q10 [CoQ10], the “Survival of cancer patients on therapy with CoQ10” value with cancer patients is listed as 5-15 years. Moreover, in the data set with NCI-ES-0808 cells (3, 6, 24, 48 hours, 50 uM and 100 uM Q10), the “Differences in cell number or morphology (FIG. 1 legend)” value was “no distinct differences in either cell number or morphology”. In the data set with NCI-ES-0808 cells (among treatment groups, 3 hrs and 6 hrs post treatment (FIG. 1)), the “Differences in morphology, apoptotic cells or cell number by microscopy” value was “No differences in morphology, number of visually ascertainable apoptotic cells or cell number”. Also, the “Fraction of orally-administered CoQ10 absorbed” value in data set [1] was 2-3%. Further, the “Expression of CBP/p300” value in the data set with NCIES0808 cells (ES0808 cell line, compared to baseline) is recorded as “increase”. For the same substance, the “Decrease in expression (value = protein), discussion list” value with NCIES0808 cells (NCIES 0808 cells in response to CoQ10) is “HDAC2 and HDAC4 and mTOR”. The FOXO1a expression result in the data set with NCIES0808 cells (treatment with 100 μM CoQ10) was “up regulated”. For the same substance, the “Apoptotic response of cancer vs control cell lines” value in data set [2] was “induction of apoptosis and cell death in the cancer cells only”. The “Share of the molecule found in the reduced form (Q10H2)” value in data set [3] was 90%. Further, the “Level of Coenzyme Q10 present in the mitochondria” value in data set [4] (addition of exogenous Q10) is “increase in a time and dose dependent manner”. In addition, the “Form of CoQ10 present in the mitochondria” value in data set [4] (mitochondrial enriched preparations from treated cells) is given as “primarily in oxidized form”.
